According to US6469057B1, “Methods for in vivo reduction of free radical levels and compositions useful therefor” (MCW Research Foundation, Inc., priority 1995, dated 2002):
Entries after “also recorded” stand apart in the source; their conditions may differ.

Columns and labels:
NO [1] = assay: Ex vivo EPR measurement of [(MGD)2/Fe-NO] levels in the urine of LPS-treated mice; conditions: for [(MGD)2/Fe-NO] present in LPS-treated mouse urine: urine 2 h later
Protocol: After 2 h, the mouse was sacrificed and the urine sample was collected from the urinary bladder, and immediately transferred to a quartz flat cell for X-band EPR measurement as described above in Example 2B. Inhibition experiments with NMMA or dexamethasone were performed as described above in Example 2A, except that the mice were treated with LPS prior to following the protocols for NO inhibition experiments. The procedures for S-band EPR measurement of wet tissues and blood samples were as described previously (Lai and Komarov, supra).
Thus, at 6 h after LPS treatment, mice were injected with the [(MGD)2/Fe] complex, with and without i.p. injection of NMMA (50 mg/kg). The mice were sacrificed at 2 h after injection of the [(MGD)2/Fe] complex. The urine samples were collected and the EPR measurement was carried out at 22° C.

NO [2] = assay: Ex vivo EPR measurement of [(MGD)2/Fe-NO] levels in the urine of normal mice
Protocol: Normal mice housed in a restraining tube were injected subcutaneously with 0.4 ml of the [(MGD)2/Fe] complex (326 mg/Kg of MGD and 34 mg/Kg of FeSO4). After 2 hours, the animals were sacrificed and the urine samples were collected from the urinary bladder. The urine sample, which was dark brown (characteristic of the presence of [(MGD)2/Fe] complex), was transferred to a quartz flat cell for EPR measurement. The spectra were recorded at 22° C. with an X-band EPR spectrometer, operating at 9.5 GHz. Instrument settings include 100-G field scan, 4-min scan time, 0.5-s time constant, 2.5-G modulation amplitude, 100-KHz modulation frequency and 100-mW microwave power. The concentrations of the [(MGD)2/Fe—NO] complex in the urine samples were calculated by comparing the signal intensities obtained from the samples to the signal intensity of a standard solution containing 0.1 mM of the [(MGD)2/Fe—NO] complex.
For inhibition experiments, mice were injected intraperitoneally with 50 mg/kg NMMA in saline immediately after the injection of the [(MGD)2/Fe] complex. In other experiments, mice were injected intravenously with 3 mg/kg dexamethasone in saline about 1.5 h before the injection of the [(MGD)2/Fe] complex. […] Acetylcholine chloride (Sigma) in saline was freshly prepared prior to subcutaneous injection at a dose of 67 mg/kg.
At 2 h after subcutaneous injection of an aliquot (0.4 ml) of the [(MGD)2/Fe] complex (326 mg/Kg of MGD and 34 mg/Kg of FeSO4) into normal mice (A) (and also in the presence of NMMA (50 mg/kg) (B), or of dexamethasone (3 mg/kg) (C)), the animals were sacrificed and the urine samples collected and transferred to a quartz flat cell for X-band (9.5 GHz) EPR measurement at 22° C.

SMILES	effect on signal intensity of [(MGD)2/Fe-NO] in the urine of LPS-treated mice (NO [1]; NMMA 50 mg/kg i.p. at 6 h after LPS)	[(MGD)2/Fe-NO] present in LPS-treated mouse urine (NO [1]; NMMA 50 mg/kg i.p. at 6 h after LPS just prior to [(MGD)2/Fe])	[(MGD)2/Fe-NO] present in LPS-treated mouse urine (NO [1]; NMMA 100 mg/kg i.p. at 6 h after LPS just prior to [(MGD)2/Fe])	effect on the [(MGD)2/Fe-NO] EPR signal in urine (NO [2]; normal mice, NMMA 50 mg/kg i.p., dexamethasone 3 mg/kg i.v. pretreatment)	[(MGD)2/Fe-NO] present in mouse urine (NO [2]; mouse, in vivo)	increase in urinary [(MGD)2/Fe-NO] levels (NO [2]; normal mice, acetylcholine 67 mg/kg s.c.) [fold]
CNC(=N)NCCC[C@H](N)C(=O)O [NMMA, N^G-monomethyl-L-arginine]	markedly reduces the signal intensity; also recorded: markedly reducing the signal intensity	3.6 ± 0.9 (4)	7.3 ± 2.2 (3)	markedly reduced	–	–
CC(=O)OCC[N+](C)(C)C.[Cl-] [Acetylcholine, acetylcholine chloride]	–	–	–	–	3.9 ± 0.8 (3) μM	3
